Test results reported in patent publication US20230310554A1 (priority 2020, published 2023).
“And” between values parts separate entries of the source, which are not always exact repeats. Identical values can stand only once.

What was measured:
PC-12 cells = assay type: cell-based, rat; conditions: for EC50: read-out: EC50 of cyanide under existence of each antidote
[1] = tested on: cyanide poisoning mouse models; set-up: species or system mouse (ddY); conditions: in vivo
[2] = tested on: cyanide poisoning mouse models; set-up: species or system mouse (ddY); conditions: in vivo; remark: listed apart in the source
[3] = tested on: cyanide poisoning mouse models; set-up: species or system mouse (ddY); conditions: in vivo; remark: listed apart in the source
[4] = tested on: plasma proteins such as haptocorrin; conditions: cited from earlier work

Compound | cell viability compared with the control group to which only NaCN had been added (PC-12 cells) | EC50 (PC-12 cells) | mice survived [1] [%] | time required until the recovery (coma to awakening) [2] | survival rate [3] | reduction of antidotal ability by binding to plasma proteins [4]
O=S([O-])([O-])=S.[Na+].[Na+] [Na2S2O3, sodium thiosulfate] | had no effects | 9.98 mM and 12.5 mM and 12.1 mM and 10.4 mM and 10.7 mM |  |  |  | 
C/C1=C2/[N-][C@H]([C@H](CC(N)=O)[C@@]2(C)CCC(=O)NC[C@@H](C)OP(=O)([O-])O[C@H]2[C@@H](O)[C@@H](n3cnc4cc(C)c(C)cc43)O[C@@H]2CO)[C@]2(C)N=C(/C(C)=C3N=C(/C=C4N=C1[C@@H](CCC(N)=O)C\4(C)C)[C@@H](CCC(N)=O)[C@]\3(C)CC(N)=O)[C@@H](CCC(N)=O)[C@]2(C)CC(N)=O.[Co+3].[OH-] [OHCbl, hydroxocobalamin] | high survival rate |  | 50 | 4.8 min and 4.6 min | 90% and 70% and 60% | 1/600
metHb: methemoglobin produced by oxidizing OxyHb with sodium nitrite | significantly high survival rate | 23.3 mM and 28.8 mM and 31.1 mM and 19.1 mM |  |  |  | 
